This is an account of results in patent EP3875583A1, “GENETIC CASSETTE COMPRISING THE PHT PATHWAY GENES, RECOMBINANT HOST CELLS COMPRISING IT AND THEIR USE IN THE DEGRADATION AND VALORIZATION OF PHTHALATES” (Consejo Superior de Investigaciones Científicas (CSIC), priority 2020, dated 2021).

Holding throughout (format): cell-based
The subject of one assay is A. evansii cells. The assay is described as follows: [14C]-PA uptake assay in A. evansii cells grown under nitrate-reducing conditions. The following applies: Aromatoleum evansii; cells grown anaerobically on PA, exposed to 1 mM inhibitor before the [14C]-PA transport assay; read-out: PA transport capacity retained. As to the method: Cells were grown in NB from A600 of 0.1 to A600 of 1.8≈2.0, incubated for 14h, induced by adding 1.0 mM IPTG. Cells were harvested by centrifugation, washed twice in sodium salt and suspended at a cell density of 1090 mg of protein/liter (A600 of 4.0) in sodium salt. The uptake of radioactive o-phthalate into cells was followed in a reaction mixture containing 50 µL of prewarmed cells (at 30°C for 5 min) and 50 µL of 250 µM [^14C]-o-phthalate. […] Phthalate uptake was stopped by diluting the suspensions with 1 mL of ice-cold sodium salt, collecting the cells on a 0.22-µm-pore-size Millipore GSWP nitrocellulose filter, and washing, under suction, the cells with 5 mL of ice-cold sodium salt. The filter was dissolved in 2 ml of scintillation fluid (Cocktail Ready Safe, Beckman) and counted in an LKB Wallac liquid scintillation counter. […] To test the transporter's specificity the assays were performed according to the standard procedure but adding different unlabeled substrates: o-phthalate (250 mM), isophthalate (250 mM), terephthalate (250 mM).
To study PA transport in denitrifying bacteria expressing the pht peripheral pathway, we used A. evansii cells grown anaerobically in MC medium containing 5 mM benzoate or 5 mM PA. Cells suspended in sodium salt were incubated with 25 µM [^14C]-PA, and a time-course of the amount of [^14C]-PA incorporated into the cells was determined. […]

Assay [1] deals with PhtTa-PhtTb TAXI-TRAP transporter. The assay is described as follows: [14C]-PA uptake assay in Azoarcus sp. CIB (pIZPHTRAP) cells expressing the transporter. The following applies: for [14C]-PA uptake after pre-incubation with inhibitor: cells pre-incubated 10 min with 1 mM inhibitor before the transport assay; for [14C]-PA uptake rate, % of the rate in the absence of a competitor substrate: 25 µM [14C]-PA. The procedure:
Cells were grown in NB from A600 of 0.1 to A600 of 1.8≈2.0, incubated for 14h, induced by adding 1.0 mM IPTG. Cells were harvested by centrifugation, washed twice in sodium salt and suspended at a cell density of 1090 mg of protein/liter (A600 of 4.0) in sodium salt. […] Phthalate uptake was stopped by diluting the suspensions with 1 mL of ice-cold sodium salt, collecting the cells on a 0.22-µm-pore-size Millipore GSWP nitrocellulose filter, and washing, under suction, the cells with 5 mL of ice-cold sodium salt. The filter was dissolved in 2 ml of scintillation fluid (Cocktail Ready Safe, Beckman) and counted in an LKB Wallac liquid scintillation counter. […]
We have shown above that the phtTa-phtTb transport genes are essential for the anaerobic degradation of PA. To confirm that the phtTa-phtTb genes encode a PA transporter and to determine its biochemical properties, we performed PA uptake experiments at different [^14C]-PA concentrations in Azoarcus sp. […] CIB (pIZPHTRAP), i.e., cells that express the catabolic pht genes as well as the phtTa-phtTb transport genes - the genetic cassette of the invention. […]. […] [^14C]-PA uptake rates were tested in the presence of non-radioactive phthalate isomers as competitors.

The subject of assay [2] is Azoarcus sp. CIB (pIZPHTRAP) strain.
A further assay deals with boxB2 gene. The assay is described as follows: real-time RT-PCR gene expression in C. necator H16 (pIZPHTRAP) cells. The following applies: cells grown on 3 mM PA compared with 18 mM pyruvate (control). The procedure: (§1) Cupriavidus necator H16 and Azoarcus sp. CIB cells harboring plasmid pIZPHTRAP were grown aerobically on PA-, benzoate- or pyruvate-containing MC medium until the culture reached to the end of the exponential phase. Cells were lysed in TE buffer (10 mM Tris-HCI, pH 7.5, 1 mM EDTA) containing 50 mg ml^-1 lysozyme. Total RNA was extracted using a High Pure RNA isolation kit (Roche), and then it was DNase-treated with a Turbo DNase kit (Ambion). The concentration and purity of the RNA samples were assessed using a Nanophotometer Pearl (Implen) according to the manufacturer's protocols, and by testing the absence of DNA through PCR amplification. Synthesis of total cDNA was performed by using the Transcriptor First Strand cDNA Synthesis kit (Roche) in 20-µl reactions containing 1 µg of RNA, 1 mM concentration of each dNTP, 10 units of reverse transcriptase, 20 units of Protector RNase Inhibitor, and 60 µM random hexamers as primers in the buffer provided by the manufacturer. The RNA and hexamers were initially heated at 65 °C for 10 min and following the addition of the rest of the components, samples were incubated at 25°C for 10 min and then at 55°C for 30 min. Reactions were terminated by incubation at 85°C for 5 min. In standard RT-PCR reactions, the cDNA was amplified with 1 unit of AmpliTaq DNA polymerase (Biotools) and […] concentrations of the corresponding primer pairs of the boxB gene from Azoarcus sp. CIB (Table 2). […] For relative quantification of the fluorescence values, a calibration curve was constructed by sevenfold serial dilutions of a C. necator H16 genomic DNA sample ranging from 1 ng to 0.5 x10-7 ng. […]
(§2) To confirm that C. necator H16 (pIZPHTRAP) was degrading PA via the box pathway, we analyzed the expression of some marker genes of the classical ben-cat pathway, e.g. benA gene, and the hybrid box pathway, e.g., boxB1 (for cluster box1) and boxB2 (for cluster box2) (Fig. 5C). qRT-PCR gene expression studies of C. necator H16 (pIZPHTRAP) cells grown on PA were compared with those of cells grown on pyruvate (control). […]

A further assay concerns benA gene. Described as above. The following applies: cells grown on 3 mM PA compared with 18 mM pyruvate (control); result in words. As to the method:
as §1, §2

For another assay, the system named is boxB1 gene. The assay is described as above. The following applies: cells grown on 3 mM PA compared with 18 mM pyruvate (control). The procedure:
as §1, §2

Assay [3] has as its system C. necator H16 (pIZPHTRAP) cells. The assay is described as follows: PHB content by GC-MS of the methanolysed polyester, aerobic bioconversion. The following applies: cells grown aerobically on the substance as sole carbon source (3 mM), MC medium, 30°C, stationary phase.

On to `C(=NC1CCCCC1)=NC1CCCCC1` [DCCD, 1,3-dicyclohexylcarbodiimide, reference compound], for which the activity at 1000 µM in the assay with A. evansii cells was > 80%. In addition, the “[14C]-PA uptake after pre-incubation with inhibitor” value in assay [1] (result in words) was “did not decrease”.
Turning to `O=[N+]([O-])c1ccc(O)c([N+](=O)[O-])c1` [DNP, 2,4-dinitrophenol, reference compound], the “[14C]-PA uptake after pre-incubation with inhibitor” value in assay [1] (result in words) is on record as “completely inhibited”.
With `O=C(O)c1ccccc1C(=O)O` [PA, o-phthalate], the “PHB production efficiency, lower than that of the recombinant C. necator H16 strain” value in assay [2] turned out to be 5 fold. In addition, the “uptake rate of 25 µM [14C]-PA with competitor” value in assay [1] (250 µM unlabeled competitor, result in words) is “completely inhibited”. In assay [1] (Azoarcus sp. CIB (pIZPHTRAP) cells, read-out: transport affinity (Km)), the Km amounted to 15 µM. Besides, the saturation kinetics result in assay [1] (PA concentration at saturation, Azoarcus sp. CIB (pIZPHTRAP) cells) is reported as “about 20 µM”. Also, in assay [1] ([14C]-PA 5 to 25 µM, Azoarcus sp. CIB (pIZPHTRAP) cells), the maximum uptake rate result is “about 156 ± 14 pmol min^-1 mg protein^-1”. Besides, the results for the fold induction at 3000 µM in the assay on boxB2 gene and with boxB1 gene were ~400 and ~40, respectively. The “basal expression of the benA gene” value in the assay on benA gene is recorded as “similar”.
Consider `O=C(O)c1ccccc1` [benzoate], for which the “PHB accumulated, of the total cell dry weight” value in assay [3] was 14%.
In the case of `O=C(O)c1cccc(C(=O)O)c1` [isophthalate, reference compound], in assay [1] (250 µM unlabeled competitor), the “[14C]-PA uptake rate, % of the rate in the absence of a competitor substrate” value is 50%.
The same measure, in the same setting: the value for `O=C(O)c1ccc(C(=O)O)cc1` [terephthalate, reference compound] was 60%.

Broadly, the Km is the concentration of substrate that gives half-maximal velocity. The fold induction is the ratio of treated to control signal. A low value points to a weak induction.
